# In ChEMBL document CHEMBL1140802 (Bioorg Med Chem Lett, 2008):
# Assay: Blockade of CNGA1/CNGB1 expressed in Xenopus oocyte by electrophysiological method
row,Structure (SMILES),Kd [µM]
1,CCCCCCCCNc1ccc(C(=O)OCCN(C)C)cc1,1.3
2,CCCCNc1ccc(C(=O)OCCCN(CCCC)CCCC)cc1,1.3
3,CC(C)CNc1ccc(C(=O)OCCN(C)C)cc1,20
4,CCCCNc1ccc(C(=O)OCCCN(C)C)cc1,5
5,CN(C)CCOC(=O)c1ccc(NC2CCCCC2)cc1,17
6,CCCCNc1ccc(C(=O)OCCN(CCCC)CCCC)cc1,1.1
7,CCCCNc1ccc(C(=O)OCCCCN(CCCC)CCCC)cc1,1.3
8,CCCCCCNc1ccc(C(=O)OCCN(C)C)cc1,3.8
9,CCCCNc1ccc(C(=O)OCCCCN(C)C)cc1,7.1
10,CCCCNc1ccc(C(=O)OCCN(CC)CC)cc1 [P-BUTYLAMINOBENZOYLDIETHYLAMINOETHYL],8.5
11,CN(C)CCOC(=O)c1ccc(NCc2ccccc2)cc1,16
12,CCCCCCCCNc1ccc(C(=O)OCC[N+](C)(C)CC)cc1,1.6
13,CCCCNc1ccc(C(=O)OCCCN(CC)CC)cc1,5.6
